Square brackets hold non-standard residues; d marks the D form. Ends that are not written are not given here. Cit = NC(=O)NCCC[C@H](N)C(=O)O

One assay deals with splenocytes. The assay is described as follows: Ex vivo elispot assay on splenocytes of immunised HLA-DR4 transgenic mice. The format is in vivo. The settings on record: for IFNg elispot response to citrullinated peptide over unmodified peptide or background control: citrullinated peptides 25 ug s.c. in CpG and MPLA, FIG. 34; for IFNγ elispot response against vimentin 28-49 triple, double and single citrullinated peptides: peptide immunisation, FIG. 11. Here is the method: C57BL/6 mice (Charles River, UK), HLA-DR4 mice (Taconic, USA), HHDII mice (Pasteur institute, France) and HHDII/DRI mice (Pasteur institute, France) were used, aged between 8 and 12 weeks, and cared for by the staff at Nottingham Trent University. All work was carried out under a Home Office project license. Peptides were dissolved in 10% Dimethylformamide to 1 mg/ml and then emulsified (a series of dilutions) with different adjuvants: CpG and MPLA 6 μg/mouse of each (Invivogen, UK), Incomplete Freund's […] (Sigma, UK), and GMCSF 10 μg/mouse (Peprotech, UK). Peptides (25 μg/mouse) were injected subcutaneously at the base of the tail. DNA (1 μg/mouse) was coated onto 1.0 μm gold particles (BioRad, Hemel Hempstead, UK) using the manufacturer's instructions and administered intradermally by genegun (BioRad). Homspera (10 nM/mouse) (PeptideSynthetics, UK) was injected intradermally with genegun immunisation. Mice were immunized at either day 0 for peptide immunisation or days, 0, 7, and 14 for peptide and genegun immunisation. Spleens were removed for analysis at day 14 for peptide and day 20 for peptide or genegun immunisation unless stated otherwise. 400 μg Anti-CD25 antibody (PC61) was administered i.p. in saline 3 days prior to the immunisation. 200 μg Anti-CTLA-4 antibody (UC 10-4F, 10-11) was administered i.p. in saline at day 7 and 14 with either genegun or peptide immunisation.
Elispot assays were performed using murine IFNγ, IL-17 and IL-10 capture and detection reagents according to the manufacturer's instructions (Mabtech, Sweden). In brief, anti-IFNγ, IL-17 and IL-10 antibodies were coated onto wells of 96-well Immobilin-P plate. Synthetic peptides (at a variety of concentrations) and 5×10^5 per well splenocytes were added to the wells of the plate in triplicate. Tumour target cells were added where relevant at 5×10^4/well in triplicate and plates incubated for 40 hrs at 37° C. After incubation, captured IFNγ, […], IL-17 and IL-10 were detected by biotinylated anti-IFNγ, IL-17 and IL-10 antibodies and developed with a strepatavidin alkaline phosphatase and chromogenic substrate. Spots were analysed and counted using an automated plate reader (Cellular Technologies Ltd). Functional avidity was calculated as the concentration mediating 50% maximal effector function using a graph of effector function versus peptide concentration.

The test system of another assay is PBMC. The assay is described as follows: Proliferation assay of PBMC from cancer patients. The assay is classed as cell-based, human. The settings on record: PBMC stimulated with 10 μg/ml peptide for 4, 7 and 11 days, 3H-thymidine. Here is the method:
PBMC were isolated from freshly drawn heparinised blood by Ficol-Hypaque (Sigma) gradient centrifugation. PBMC (1.5×10^6 cells/well) were stimulated with single peptides (final concentration 10 μg/ml) in RPMI containing 5% pooled autologous human serum, 2 mM glutamine, 20 mM HEPES and Penicillin-streptomycin (1%) in a final volume of 2 ml. Stimulation with purified protein derivative, PPD (final concentration 10 μg/ml) served as a positive control for the proliferative capacity of PBMC. As a negative control PBMC were incubated with medium alone. The PBMC were cultured at 37° C. in an atmosphere of 5% CO2 for 4, 7 and 11 days. To assess proliferation at these times points 100 μl in triplicate from each culture was aliquoted into a round bottom well of a 96 well plate and ^3H-thymidine added (0.0185 MBq/well) and incubated at 37° C. for a further 8 hours. The cultures were harvested onto unifilter plates and incorporation of ^3H-thymidine was determined by β-scintillation counting. The results were assessed by calculating the stimulation index (SI) as the ratio of the mean of counts per minute (cpm) of epitope-stimulated to the mean of unstimulated cultures. The proliferative assay was considered positive when SI >2.5.

[1] abbreviates: 25 μg peptide with CpG and MPLA day 0, day 14, peptide 5 μM.
Where [2] appears, read: 25 μg peptide with CpG and MPLA day 0, day 14 splenocytes, peptide 5 μM.

For KLATEYMSSARSLSSEEK [ING4 44-58], in the assay on splenocytes, the “IFNg elispot response to citrullinated peptide over unmodified peptide or background control” value is “significant responses”.
On to “LPNFSSLNLRETNLDSLPL [wild type vim 415-433 peptide]”, for which the “patients showing a proliferative response (SI >2.5)” value with PBMC is 8/11. For the same substance, the “patients showing a proliferative response (SI >2.5)” value in the assay on PBMC (listed as unmodified vim 415) is recorded as “Six of eleven”. The “IL-10 response, mean” value with splenocytes (25 μg peptide in MPLA and CPG s.c., day 14, FIG. 30) is given as 580 spots/million splenocytes. Moreover, the IL-10 elispot responses entry in the assay with splenocytes (25 μg peptide with CpG and MPLA day 0, day 14, against wild type and citrullinated peptides) is “No significant IL-10 responses”. Also, in the assay on splenocytes (setting [1]), the “IL-2 elispot response to citrullinated peptide, mean” value is recorded as “weak” and the “IL-17 elispot response to wild type peptide, mean” value is on record as “failed to stimulate a significant IFNγ or IL-17 response”. For the same substance, the “IFNγ elispot response to wild type peptide, mean” value with splenocytes (setting [2]) was “failed to stimulate a significant IFNγ or IL-17 response”.
On to RAPFDLFENRKKKNN [HSP90 346-360], for which the “IFNg elispot response to citrullinated peptide over unmodified peptide or background control” value with splenocytes was “significant responses”.
The same measure, in the same setting: the entry for RKKLSELLRYYTSASGDEMVSL [HSP90 456-477] is “significant responses”.
Regarding “SAVRLRSSVPGVR [wild type vim 65-77 peptide]”, in the assay with PBMC (listed as vim 65), the “patients showing a proliferative response (SI >2.5)” value is on record as “Four out of eight”. Moreover, in the assay on PBMC (listed as vim 65-77), the “patients showing a proliferative response (SI >2.5)” value was 4/9. Further, in the assay with splenocytes (setting [1]), the “IL-17 elispot response to citrullinated peptide, mean” value is reported as “weak” and the “IL-17 elispot response to wild type peptide, mean” value is “weak”. Besides, in the assay with splenocytes (setting [2]), the “IFNγ elispot response to citrullinated peptide, mean” value was “weak” and the “IFNγ elispot response to wild type peptide, mean” value is “weak”.
On to VPAYFNDAQRQATKDA [BiP 172-186], for which, in the assay on splenocytes, the “IFNg elispot response to citrullinated peptide over unmodified peptide or background control” value is listed as “significant responses”.
Turning to “Vim 28-49 only citrullinated at position 28: vimentin 28-49 peptide with citrulline only at position 28 ([Cit]SYVTTSTRTYSLGSALRPSTS; UniProt P08670 28-49, looked up, fragment)”, the “IFNγ elispot response against vimentin 28-49 triple, double and single citrullinated peptides” value with splenocytes is “gave a response to the tri-citrullinated peptide and the Vim 45 citrullinated peptide”.
Take YSCVGVFKNGRVEII [BiP 39-53]: in the assay with splenocytes, the “IFNg elispot response to citrullinated peptide over unmodified peptide or background control” value was “significant responses”.
Consider “mouse vim 415 cit: murine vimentin 415-433 citrullinated peptide (LPTFSSLNL[Cit]ETNLESLPL; UniProt P20152 415-433, looked up, fragment)”, for which the “influence of natural Treg depletion (anti-CD25 mAb) on the response” value with splenocytes (25 μg peptide day 0, PC61 three days before, IFNγ elispot day 14) is recorded as “no influence on the frequency or the avidity of the response”.
As to “vim 28 and 36 citrullinated peptide: vimentin 28-49 peptide citrullinated at positions 28 and 36 ([Cit]SYVTTST[Cit]TYSLGSALRPSTS; UniProt P08670 28-49, looked up, fragment)”, the “IFNγ elispot response against vimentin 28-49 triple, double and single citrullinated peptides” value in the assay with splenocytes is “responded to the triple”.

For the origin of these results see patent publication US12258377B2 (Scancell Limited, priority 2012, dated 2025).
